# Experimental data published in patent US11974990B2, “TXNIP-TRX complex inhibitors and methods of using the same” (City of Hope, priority 2018, dated 2024).
# “Also recorded” adds a separate entry of the source.
# Columns and labels:
# TXNIP = molecular target: T1, TXNIP (Homo sapiens, UniProt Q9H3M7); test: DARTS assay (drug affinity responsive target stability) in THP1 cell extracts; format: binding; settings: THP1 extracts after 25 mM glucose 72 h; 10 and 20 minutes, 0.5 to 4 uM lanes (FIG. 15)
# T1 construct: Cell extracts were prepared; endogenous in cells; host or cells: THP1 cell lysate (25 mM glucose, 72 h)
# T1 sequence (Q9H3M7 1-391): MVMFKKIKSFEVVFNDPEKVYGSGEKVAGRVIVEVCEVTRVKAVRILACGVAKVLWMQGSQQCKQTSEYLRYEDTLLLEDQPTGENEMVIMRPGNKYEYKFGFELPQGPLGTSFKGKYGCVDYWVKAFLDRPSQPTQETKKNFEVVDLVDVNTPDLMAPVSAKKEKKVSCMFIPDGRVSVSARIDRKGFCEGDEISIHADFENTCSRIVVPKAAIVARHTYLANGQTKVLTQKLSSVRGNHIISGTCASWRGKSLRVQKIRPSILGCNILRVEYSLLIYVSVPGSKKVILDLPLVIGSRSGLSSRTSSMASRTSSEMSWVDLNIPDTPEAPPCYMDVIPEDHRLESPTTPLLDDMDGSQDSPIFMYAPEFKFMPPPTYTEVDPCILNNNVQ
# Experimental: FIG. 15. […] THP1 cell were cultured in RPMI 1640 medium in 25 mM glucose for 72 hours. Cell extracts were prepared. C1 was added at the indicated concentrations and protease was added except in control cells. Aliquots were withdrawn at 10, 20, 30 and 40 minutes and loaded onto 10% SDS gels. C1: compound 1; control: without protease.
# Assay 3: DARTS Assay (drug affinity responsive target stability). We adopted the DARTS assay because it is a straightforward method to check if a compound interacts with TXNIP. In this assay, when a compound binds to its target molecule, it can reduce the rate of its proteolytic digestion.
# The drug affinity response target stability assay (DARTS assay) is a method to identify potential protein targets (binders) of small molecules. The advantage of this method is being able to use the native small molecule without having to immobilize or modify the […] (e.g., by incorporation of biotin, fluorescent molecules, radioisotope, or photo-affinity labels). In this case, it relies on the protection against proteolysis conferred on TXNIP by interaction with a small molecule (lead compound).
# Drug affinity responsive target stability (DARTS) assay. DARTS assay was conducted according to a published protocol (Lomenick et al., 2009; Pai et al., 2015). THP1 cells were lysed with extract buffer. […]
# TXNIP mRNA [1] = test: TXNIP mRNA expression (RT-PCR) in murine MIN6 pancreatic beta cells; format: cell-based; settings: 25 mM glucose, 72 h (FIG. 11 left)
# Experimental: FIG. 11. […] MIN6 cells were cultured in 25 mM glucose with C1 at uM concentrations for 72 h. Total RNA was prepared. RT-PCR was performed. Data shown are the mean+SEM from triplicates. Statistical analysis was performed for each column vs. HG DMSO using one-way ANOVA: *<0.0001.
# (§1) RNA extraction and quantitative RT-PCR. RNA was extracted using the Direct-zol™ RNA MiniPrep Plus (Zymo Research). Reverse transcription of RNA samples into cDNA was performed using the GeneAmp RNA PCR Kit (Applied Biosystems), dNTP (from Roche Applied Science), Rnase inhibitor, MULV Reverse Transcriptase and Random hexamers reagent (all from Invitrogen). Diluted cDNA was quantified using real-time PCR performed with Power SYBR Green qPCR MasterMix (Applied Biosystem) and 7500 real-time PCR system (Applied Biosystems). The HPRT1 gene was used as an internal control.
# TXNIP mRNA [2] = test: TXNIP mRNA expression (RT-PCR) in THP1 cells under 25 mM glucose; format: cell-based, human; settings: THP1, 25 mM glucose, concentration range of C1, 72 h (FIG. 9A)
# Experimental: FIGS. 9A-9B. FIG. 9A. […] THP1 cells were cultured in 25 mM glucose with the indicated concentrations of C1 for 72 h. Cell were collected for total RNA preparation. RT-PCR were performed and data shown are the mean+SEM from triplicates. Statistical analysis was performed using one-way ANOVA, *<0.0001. FIG. 9B. […] THP1 cells were cultured in 25 mM glucose and C1 (uM) as indicated for 72 hours and collected for total RNA preparation. RT-PCR was performed. Data shown are the mean+SEM from triplicates. Statistical analysis was performed using one-way ANOVA: *<0.02; **<0.0001.
# FIG. 13. C1 analogs affects TXNIP mRNA expression in THP1 cells. THP1 cells were cultured in 25 mM glucose with 5 uM of compounds for 72 h. Total RNA was collected and RT-PCR was performed in triplicate and data shown are the mean+SEM. Statistical analysis was performed using one-way ANOVA: *<0.0001.
# RNA extraction and quantitative RT-PCR. RNA was extracted using the Direct-zol™ RNA MiniPrep Plus (Zymo Research). […] Diluted cDNA was quantified using real-time PCR performed with Power SYBR Green qPCR MasterMix (Applied Biosystem) and 7500 real-time PCR system (Applied Biosystems). […]
# RNA extraction and quantitative RT-PCR. […] Diluted cDNA was quantified using real-time PCR performed with Power SYBR Green qPCR MasterMix (Applied Biosystem) and 7500 real-time PCR system (Applied Biosystems). […]
# [3] = Preliminary cell toxicity study in THP1 cells; format: cell-based; settings: human
# TNF-α mRNA [4] = test: TNF-α mRNA expression (RT-PCR) in human 1.1B4 pancreatic β cells; format: cell-based; settings: 1.1B4 β cells, 25 mM glucose, 72 h (FIG. 12 right)
# Experimental: (§2) FIG. 12. […] Human 1.1B4 β cells were cultured in 25 mM glucose with C1 (uM) for 72 h. Total RNA was prepared. RT-PCR was performed. Data shown are the mean+SEM from triplicates. Statistical analysis was performed for each column vs. HG DMSO using one-way ANOVA: *<0.0001.
# as §1
# TNF-α mRNA [5] = test: TNF-α mRNA expression (RT-PCR) in murine RAW macrophages; format: cell-based; settings: RAW cells, 25 mM glucose, 72 h (FIG. 10B)
# Experimental: FIGS. 10A-10B. FIG. 10A. […] RAW cells were cultured in 25 mM glucose with C1 (uM) for 72 h. Total RNA was prepared. RT-PCR was performed. Data shown are the mean+SEM from triplicates. Statistical analysis was performed for each column vs. high glucose (HG) DMSO using one-way ANOVA: *<0.0001. FIG. 10B. […] RAW cells were cultured in 25 mM glucose with C1 (uM) for 72 hours. Total RNA was prepared. RT-PCR was performed. Data shown are the mean+SEM from triplicates. Statistical analysis was performed for each column vs. HG DMSO using one-way ANOVA: *<0.0001.
# as §1
# TXNIP mRNA [6] = test: TXNIP mRNA expression (RT-PCR) in human 1.1B4 pancreatic β cells; format: cell-based; settings: 1.1B4 β cells, 25 mM glucose, 72 h (FIG. 12 left)
# Experimental: as §2, §1
structure (smiles),measurement,setting,value
"CC(C)C(C(=O)O)N1C(=O)c2ccncc2C1=O (stereo not shown) [Compound C1, 2-(1,3-dioxo-1,3-dihydro-2H-pyrrolo[3,4-c]pyridin-2-yl)-3-methylbutanoic acid]",protection of TXNIP from proteolysis,TXNIP,stabilizes TXNIP by binding to it; also recorded: bind to TXNIP and prevent its proteolysis; also recorded: protects TXNIP from proteolysis
same,TXNIP mRNA levels,TXNIP mRNA [1],decreased TXNIP
same,TXNIP mRNA expression,TXNIP mRNA [2],inhibits TXNIP mRNA expression; also recorded: attenuate high glucose induced expression of inflammatory cytokine molecules and TXNIP in monocytes; also recorded: inhibit TXNIP expression in a dose-dependent manner
same,IC50,[3],450 µM
same,TNF-α mRNA expression,TNF-α mRNA [4],affects TXNIP and TNF-α mRNA expression; also recorded: decreased TNF-α expression
same,TNF-α mRNA expression,TNF-α mRNA [5],decreased TNF-α mRNA expression; also recorded: inhibited TXNIP and TNF-α mRNA expression
same,TXNIP mRNA expression,TXNIP mRNA [6],affects TXNIP and TNF-α mRNA expression; also recorded: strongly inhibited TXNIP mRNA expression
